Data on one compound can be found in patent US8853188B2, “Compositions and methods for cancer treatment” (Women and Infants Hospital of RI, Inc., priority 2005, dated 2014).

SMILES strings stand for the structures. Some results are limits rather than exact numbers.

Common to all, as to type: cell-based
In one series the test system is caspase-3. The experiment in a line: Caspase-3 activation in endothelial cells. The following applies: data not shown. The source says:
Apoptosis in EC by B3CD was studied by DNA fragmentation and caspase-3 activation analyses as before.

A further series has as its system ovarian cancer cells. The experiment in a line: Apoptosis by DNA fragmentation, FIG. 4A. Here is the method: (§1) Materials and methods. Proliferation was measured by MTS and BrdU incorporation assays. Apoptosis was assessed by DNA fragmentation, Cell Death Detection ELISA and caspase-3-assays. Effect of B3CD on TrkB signaling by BDNF was assessed by Western Blot analysis of AKT and ERK phosphorylation. The effect on angiogenesis was determined by chick chorioallantoic membrane (CAM) assay and aortic ring assay.
(§2) B3CD was tested on the panel of cell described above. […] Such cell-type specificity is not uncommon. […] However, keratinocytes were not affected by B3CD (FIG. 4A; Lane-2). In addition, caspase-3 activity was increased by B3CD (FIG. 4B). These studies indicated an underlying apoptotic mechanism in the anticancer activity of B3CD.

The next series has as its system keratinocytes. The experiment in a line: Apoptosis by DNA fragmentation, FIG. 4A. Here is the method:
as §1, §2

In another series the test system is prostate cancer cells. The experiment in a line: Apoptosis by DNA fragmentation, FIG. 4A. On the procedure: as §1, §2
Series [1] relates to SK-N-SH cells. The experiment in a line: DNA laddering by agarose gel electrophoresis. The following applies: 250 nM, 48 hours. On the procedure: (§3) Initially, during regular microscopic examination of the B3CD treated cells, the cells were condensing and floating in the culture dishes showing indications of apoptosis. In order to determine apoptosis, SK-N-SH and SH-SY5Y cells were treated with 250 nM B3CD for 48 hours. DNA was isolated and analyzed by agarose gel electrophoresis.

Another series has as its system SH-SY5Y cells. In words: DNA laddering by agarose gel electrophoresis. The following applies: 250 nM, 48 hours. Here is the method: as §3
Series [2] relates to SMS-KCNR cells. In words: Proliferation of apoptosis-resistant NB cells. The following applies: data not shown. Here is the method: (§4) NB is characterized with defective apoptotic pathways. […] Neuronal (N-) type SH-SY5Y and IMR-32 cells, and stromal (S-) type SMS-KCNR cells which are resistant to apoptosis were used. […] A defect in caspase-8 or its activation causes resistance to apoptosis and in turn to chemotherapy in all these cells. On the other hand, these cells carry intact intrinsic apoptotic pathway, and executioner caspase-3 is activated by caspase-9 route.
(§5) In depth studies were carried out to assess the activation of intrinsic and extrinsic apoptotic pathways. […] Caspase-9 was activated by B3CD in these cells (FIG. 10B), indicating an active role of intrinsic pathway of apoptosis. […] However, caspase-8 was undetectable in IMR-32 and SH-SY5Y cells.

The test system of a further series is ERK1/2. The experiment in a line: Western Blot analysis of ERK phosphorylation. The following applies: neuroblastoma cells. On the procedure: as §1
(§6) Neuroblastoma cells were treated with B3CD for 48 hrs. […] AT 0.5 nM, B3CD inhibited >50% (p<0.035) and >90% at […] (p<0.01) viability and proliferation respectively.
Background: A western blot detects proteins with antibodies after separation by electrophoresis.

The subject of series [3] is SMS-KCNR cells. In words: Apoptosis in apoptosis-resistant NB cells. The following applies: data not shown. Here is the method: as §4, §5
(§7) Although caspase-8 was detected in SMS-KCNR cells, it was not activated by B3CD (FIG. 10D). Actin immunoblotting was used as loading control in the above studies (data not shown).

Another series relates to IMR-32 cells. The experiment in a line: Apoptosis in apoptosis-resistant NB cells. The following applies: IMR-32; data not shown. On the procedure:
as §4, §5, §7

Another series has as its system panel of cancer cells. The experiment in a line: Antiproliferative and cytotoxic activity on a panel of cancer cells (MTS, 96 well plates).
Source text: A panel of cancer cells is used to evaluate the antiproliferative and cytotoxic activities of B3CD and related analogs. The cells include colon (Colo), breast (MCF-7 and MDA-MB-231), lung (A549), prostate PC3 and LNCaP), melanoma (SK-MEL-31), renal (Caki-1), ovarian (OVCAR-3), bladder (T24), pancreatic (BxPC-3), hepatocarcinoma (Hep3B), neuroblastoma (SH-SY5Y), glioblastoma (SNB-19), medulloblastoma (D283 Med), skin (LS123), squamous cell carcinoma (Scc-15), acute promyelocytic leukemia (APL), myeloblastic (HL-60) and myelomonocytic (U937).
The anticancer activity testing will be carried out by high throughput screening. The cancer cells will be cultured in 96 well plates and treated with the library. B3CD has been tested in this system and was effective at a 200 nM dose. For general screening, 2-200 nM doses will be used. Cells will be treated with the compounds for 12, 24, 48 and 72 hours. A 96 well plate format allows testing a large number of compounds simultaneously. An MTS based colorimetric method of evaluation of proliferation will be utilized, which is widely used in cancer drug discovery. The fingerprint of profiled drugs using 60 cell-line screening program by NCl using COMPARE algorithm (Paull K D, Shoemaker R H, Hodes L, Monks A, Scudiero D A, Rubinstein L, Plowman J, Boyd M R. Display and analysis of patterns of differential activity of drugs against human tumor cell lines: development of mean graph and COMPARE algorithm. J Natl Cancer Inst 1989; 81:1088).
as §1

The test system of series [4] is SK-N-SH cells. The experiment in a line: Cell viability by MTS assay. The following applies: 48 hours. Here is the method: SK-N-SH and SH-SY5Y neuroblastic cells were treated with increasing doses of calcidiol or B3CD (0, 25, 50, 100, 200, 400 and 800 nM) for 48 hours. Cell viability was assessed by MTS assay and proliferation was determined by BrdU incorporation assay.
In general terms: Tetrazolium dyes change colour on reduction, which living cells bring about.

The test system of a further series is AKT. In words: Western Blot analysis of AKT phosphorylation. The following applies: neuroblastoma cells. Here is the method: as §1, §6

Broadly, the viability is a per cent measure of how many cells are alive, often set against a control. Take `C=C1CC[C@H](OC(=O)CBr)C/C1=C/C=C1\CCC[C@]2(C)[C@@H]([C@H](C)CCCC(C)(C)O)CC[C@@H]12` [B3CD, bromoacetic acid 3-{2-[1-(5-hydroxy-1,5-dimethyl-hexyl)-7a-methyl-octahydro-inden-4-ylidene]-ethylidene}-4-methylene-cyclohexyl ester]: the “increase in caspase-3 activity” value in the series on caspase-3 amounted to 5 fold. In addition, the “DNA laddering (apoptosis)” value in the series on ovarian cancer cells is recorded as “distinct DNA laddering characteristic of apoptosis”; in the series with keratinocytes it was “not affected”; in the series on prostate cancer cells, “distinct DNA laddering characteristic of apoptosis”. Further, the DNA laddering entry in the series on SK-N-SH cells [1] and in the series on SH-SY5Y cells was “distinct DNA laddering pattern characteristic of apoptosis” throughout. Besides, the inhibition of proliferation entry with SMS-KCNR cells [2] is listed as “dose dependent inhibition of proliferation”. In addition, the “phosphorylation of ERK1/2” value in the series with ERK1/2 was “inhibited phosphorylation”. Also, the induction of apoptosis entry in the series on SMS-KCNR cells [3] and in the series on IMR-32 cells was “induced apoptosis” each time. Also, in the series with panel of cancer cells (200 nM dose), the “anticancer activity in high throughput screening system” value is listed as “effective”. Besides, the cytotoxicity result in the series with panel of cancer cells (preliminary studies) is “exhibits cytotoxicity”. Also, the “viability of SK-N-SH cells (in words)” value with SK-N-SH cells [4] (0-800 nM) is reported as “dose dependent decrease”. The viability at 0.2 µM with SK-N-SH cells [4] (Homo sapiens, SK-N-SH, 200 nM) was below 20%. The “phosphorylation of AKT” value with AKT was “inhibited phosphorylation”.
